Measured values reported in PMC12022153, “Sustainable approach for synthesis of new coumarin-linked Schiff bases in DABCO-based ionic liquid and their identification as aldose reductase inhibitors” (Scientific Reports, 2025).
Like-named read-outs stand apart in the source and are kept apart here.

What was measured:
aldose reductase (ALR2) [1] = target: T1, aldose reductase (ALR2) (Bos taurus, UniProt P16116); test: Enzyme inhibition assay for ALR2 (aldose reductase), NADPH absorbance at 340 nm; format: biochemical, bovine; conditions: for inhibition at 100 µM: less than 50% so no IC50; for selectivity of inhibition, ALR2 versus ALR1: comparison of inhibitory activity against both enzymes; for IC50: read-out: IC50 ± SEM ALR2 Inhibition
T1 construct: ALR2 was extracted from the eyes while ALR1 was obtained from the kidneys; from tissue; host or cells: bovine eyes
Method: (§1) The ALR2 activity was estimated through measuring decrease in absorbance of NADPH in the assay at 340 nm on a spectrophotometer (FLUOstar Omega BMG LABTECH, Germany). The enzyme inhibition assay was carried out via following methods of ALR2 inhibition of our recent study. During the assay, total assay volume was kept 100 consisting of 20 µL of 100 mM sodium phosphate buffer at pH 6.2, 30 µL of the enzyme ([…]; protein concentration 12 µg mL^−1), 10 µL of test compound, and 20 µL of 1 mM substrate DL-glyceraldehyde. First, the reaction mixture was incubated without co-factor (NADPH) then reaction was initiated by addition of 20 µL of NADPH solution of 0.1 mM and monitored for five minutes. The change of absorbance was noted as pre-read and after-read, the percent inhibition was calculated for the tested compounds and standard inhibitor. For ALR1 (aldehyde reductase), sodium-D-glucuronate was employed as a substrate and valproic acid as a standard inhibitor. […] Otherwise, identical protocols were adopted for the ALR1 and ALR2 assays. First, tests compounds were solubilized in dimethyl sulfoxide (DMSO) (100%) and dilutions were prepared with deionized water to keep the concentration of DMSO at 0.1% during the assay. Initially, test compounds were tested at 100 µM. […] The logarithms of the inhibitor concentration were plotted versus the remaining activity of the enzyme, and IC50 values were calculated using non-linear regression analysis in GraphPad Prism Version 8.
(§2) Based on these reports, a library of coumarin-linked Schiff base analogues were designed. […] Compounds were also checked for selectivity via testing their inhibitory potency against ALR1 enzyme. Both aldose reductase enzymes (ALR2 and ALR1) were isolated from bovine; ALR2 was extracted from the eyes while ALR1 was obtained from the kidneys.

[2] = target: T2, aldehyde reductase (ALR1) (Bos taurus, UniProt Q3ZCJ2); test: Enzyme inhibition assay for ALR1 (aldehyde reductase), NADPH absorbance at 340 nm; format: biochemical, bovine; conditions: for inhibition at 100 µM: less than 50% so no IC50; for IC50: substrate sodium-D-glucuronate, NADPH, standard valproic acid, value ± SEM
T2 construct: ALR2 was extracted from the eyes while ALR1 was obtained from the kidneys; from tissue; host or cells: bovine kidneys
Method: as §1, §2

aldose reductase (ALR2) [3] = conditions: cited from earlier work
[4] = test compounds tested at 100 µM, read-out: % Inhibition ALR2
[5] = test compounds tested at 100 µM, read-out: % Inhibition ALR1

T2 sequence (Q3ZCJ2 whole entry): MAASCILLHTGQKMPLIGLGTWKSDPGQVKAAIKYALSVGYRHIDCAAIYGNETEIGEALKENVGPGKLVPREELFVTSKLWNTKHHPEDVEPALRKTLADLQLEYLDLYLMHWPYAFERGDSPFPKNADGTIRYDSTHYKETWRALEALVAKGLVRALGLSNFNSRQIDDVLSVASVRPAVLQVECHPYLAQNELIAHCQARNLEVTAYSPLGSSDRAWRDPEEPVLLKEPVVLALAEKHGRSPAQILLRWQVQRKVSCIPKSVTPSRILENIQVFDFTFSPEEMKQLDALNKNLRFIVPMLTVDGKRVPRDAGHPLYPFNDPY

SMILES	inhibition at 100 µM [2, 5] [%]	selectivity of inhibition, ALR2 versus ALR1 (aldose reductase (ALR2) [1])	IC50 (aldose reductase (ALR2) [1]) [µM]	IC50 [2] [µM]	also measured
O=c1oc2ccccc2cc1COc1ccccc1C=NNc1cccc([N+](=O)[O-])c1 [Compound 18, 3-((2′-((2-(3′′-Nitrophenyl)hydrazineylidene)methyl)phenoxy)methyl)-2H-chromen-2-one]	35.7	–	–	–	inhibition at 100 µM (aldose reductase (ALR2) [1]; [4]): 42.9%
COc1ccc(NN=Cc2ccccc2OCc2cc3ccccc3oc2=O)cc1 [Compound 15, 3-((2′-((2-(4′′-Methoxyphenyl)hydrazineylidene)methyl)phenoxy)methyl)-2H-chromen-2-one]	–	non-selective inhibitions	10.19 ± 0.034	4.21 ± 0.023	–
O=c1oc2ccccc2cc1COc1ccccc1C=NNc1ccccc1 [Compound 5, 3-((2′-((2-Phenylhydrazineylidene)methyl)phenoxy)methyl)-2H-chromen-2-one]	45.1	selective inhibition against ALR2 enzyme	11.2 ± 0.029	–	–
CCc1ccccc1NN=Cc1ccccc1OCc1cc2ccccc2oc1=O [Compound 14, 3-((2′-((2-(2′′-Ethylphenyl)hydrazineylidene)methyl)phenoxy)methyl)-2H-chromen-2-one]	–	non-selective inhibitions	6.52 ± 0.077	12.9 ± 0.013	–
O=c1oc2ccccc2cc1COc1ccccc1C=NNc1ccc(Cl)cc1 [Compound 9, 3-((2′-((2-(4′′-Chlorophenyl)hydrazineylidene)methyl)phenoxy)methyl)-2H-chromen-2-one]	–	–	2.84 ± 0.032	4.07 ± 0.078	–
O=c1oc2ccccc2cc1COc1ccccc1C=NNc1ccc([N+](=O)[O-])cc1[N+](=O)[O-] [Compound 22, 3-((2′-((2-(2′′,4′′-Dinitrophenyl)hydrazineylidene)methyl)phenoxy)methyl)-2H-chromen-2-one]	–	–	–	–	inhibition at 100 µM (aldose reductase (ALR2) [1]; read-out: % Inhibition ALR2, test compounds tested at 100 µM): < 50%; inhibition at 100 µM ([2]; read-out: % Inhibition ALR1, test compounds tested at 100 µM): < 50%
Cc1ccc(NN=Cc2ccccc2OCc2cc3ccccc3oc2=O)c(C)c1 [Compound 20, 3-((2′-((2-(2′′,4′′-Dimethylphenyl)hydrazineylidene)methyl)phenoxy)methyl)-2H-chromen-2-one]	–	non-selective inhibitions	7.63 ± 0.061	3.29 ± 0.064	–
CCCC(CCC)C(=O)O [Valproic acid, reference compound]	–	–	–	57.4 ± 0.89	–
O=c1oc2ccccc2cc1COc1ccccc1C=NNc1ccc(Br)cc1 [Compound 11, 3-((2′-((2-(4′′-Bromophenyl)hydrazineylidene)methyl)phenoxy)methyl)-2H-chromen-2-one]	< 50	–	–	–	inhibition at 100 µM (aldose reductase (ALR2) [1]; [4]): < 50%
O=c1oc2ccccc2cc1COc1ccccc1C=NNc1ccccc1Cl [Compound 7, 3-((2′-((2-(2′′-Chlorophenyl)hydrazineylidene)methyl)phenoxy)methyl)-2H-chromen-2-one]	–	–	3.61 ± 0.016	14.49 ± 0.052	–
O=c1oc2ccccc2cc1COc1ccccc1C=NNc1cccc(Cl)c1 [Compound 8, 3-((2′-((2-(3′′-Chlorophenyl)hydrazineylidene)methyl)phenoxy)methyl)-2H-chromen-2-one]	–	–	2.94 ± 0.083	5.96 ± 0.035	–
Cc1cccc(NN=Cc2ccccc2OCc2cc3ccccc3oc2=O)c1C [Compound 19, 3-((2′-((2-(2′′,3′′-Dimethylphenyl)hydrazineylidene)methyl)phenoxy)methyl)-2H-chromen-2-one]	37	selective inhibition against ALR2 enzyme	1.61 ± 0.049	–	–
O=c1oc2ccccc2cc1COc1ccccc1C=NNc1ccc(F)cc1 [Compound 6, 3-((2′-((2-(4′′-Fluorophenyl)hydrazineylidene)methyl)phenoxy)methyl)-2H-chromen-2-one]	45.2	selective inhibition against ALR2 enzyme	2.2 ± 0.024	–	–
O=c1oc2ccccc2cc1COc1ccccc1C=NNc1ccc(Cl)c(Cl)c1 [Compound 21, 3-((2′-((2-(3′′,4′′-Dichlorophenyl)hydrazineylidene)methyl)phenoxy)methyl)-2H-chromen-2-one]	–	non-selective inhibitions	4.07 ± 0.083	11.23 ± 0.065	–
Cc1ccc(NN=Cc2ccccc2OCc2cc3ccccc3oc2=O)cc1 [Compound 13, 3-((2′-((2-(p-Tolyl)hydrazineylidene)methyl)phenoxy)methyl)-2H-chromen-2-one]	34.2	selective inhibition against ALR2 enzyme	4.64 ± 0.045	–	–
O=c1oc2ccccc2cc1COc1ccccc1C=NNc1ccccc1Br [Compound 10, 3-((2′-((2-(2′′-Bromophenyl)hydrazineylidene)methyl)phenoxy)methyl)-2H-chromen-2-one]	< 50	–	–	–	inhibition at 100 µM (aldose reductase (ALR2) [1]; [4]): < 50%
N#Cc1ccc(NN=Cc2ccccc2OCc2cc3ccccc3oc2=O)cc1 [Compound 16, 4′′-(2-(2′-((2-Oxo-2H-chromen-3-yl)methoxy)benzylidene)hydrazineyl)benzonitrile]	42.9	–	–	–	inhibition at 100 µM (aldose reductase (ALR2) [1]; [4]): 39.2%
O=c1oc2ccccc2cc1COc1ccccc1C=NNc1ccccc1[N+](=O)[O-] [Compound 17, 3-((2′-((2-(2′′-Nitrophenyl)hydrazineylidene)methyl)phenoxy)methyl)-2H-chromen-2-one]	33.2	–	–	–	inhibition at 100 µM (aldose reductase (ALR2) [1]; [4]): 45.6%
C/C(=N\NC(=S)Nc1ccccc1F)c1cc2ccccc2oc1=O [XV]	–	–	–	–	selectivity relative to ALR1 enzyme (aldose reductase (ALR2) [3]): high selectivity; IC50 (aldose reductase (ALR2) [3]; coumarin-tethered thiosemicarbazones, read-out: IC50 ALR2 / aldose reductase inhibition): 2.07 µM
Cc1ccccc1NN=Cc1ccccc1OCc1cc2ccccc2oc1=O [Compound 12, 3-((2′-((2-(o-Tolyl)hydrazineylidene)methyl)phenoxy)methyl)-2H-chromen-2-one]	37.9	selective inhibition against ALR2 enzyme	3.66 ± 0.068	–	–
